Test results as given in ChEMBL document CHEMBL5252530, “Biological importance of structurally diversified chromenes” (Eur J Med Chem, 2016).
Values after ≈ are worked out from the molar mass of the structure shown.

System: Mycobacterium tuberculosis variant bovis
Experiment: Antibacterial activity against Mycobacterium bovis BCG assessed as reduction in cell viability measured after 14 days by microdrop agar proportion test
Assay type: functional
Details: 336 h, time 14 day

`COC(=O)c1ccc(C(=O)Oc2ccc3c(c2)OC(C)(C)C=C3C)cc1` was tested, and the MIC was 2 mg/L (≈ 5.68 µM).
